Experimental data: publication PMC8040948 (Journal of medicinal chemistry, 2020)
In brackets after ≈: the same amount, converted by molar mass. Entries after “also recorded” stand apart in the source; their conditions may differ. Read-outs that look alike come from different tables or passages of the source.

What was measured:
[1] = biological target: T1, hP2Y14R (Homo sapiens, UniProt Q15391); type: binding; details: hP2Y14R, IC50 (nM), Table 2; hP2Y14R-CHO cells; values from Tables 1A and 1B
T1 sequence (Q15391 1-338): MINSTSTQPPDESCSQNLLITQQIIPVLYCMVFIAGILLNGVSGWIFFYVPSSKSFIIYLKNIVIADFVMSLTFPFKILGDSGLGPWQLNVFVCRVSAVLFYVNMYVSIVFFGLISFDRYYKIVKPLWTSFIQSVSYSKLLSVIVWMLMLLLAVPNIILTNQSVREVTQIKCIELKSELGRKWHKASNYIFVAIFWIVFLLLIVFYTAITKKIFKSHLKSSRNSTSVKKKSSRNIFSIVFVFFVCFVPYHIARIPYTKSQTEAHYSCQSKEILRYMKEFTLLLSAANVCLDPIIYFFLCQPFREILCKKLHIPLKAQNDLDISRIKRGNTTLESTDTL

[2] = Relative lipophilicity from RP-HPLC retention time; type: physicochemical; details: RP-HPLC retention time (C18), 10 to 100% acetonitrile in 10 mM triethylammonium acetate
[3] = Aqueous solubility, pION method
[4] = biological target: T2, mP2Y14R (Mus musculus, UniProt Q9ESG6); details: species comparison
T2 sequence (Q9ESG6 1-338): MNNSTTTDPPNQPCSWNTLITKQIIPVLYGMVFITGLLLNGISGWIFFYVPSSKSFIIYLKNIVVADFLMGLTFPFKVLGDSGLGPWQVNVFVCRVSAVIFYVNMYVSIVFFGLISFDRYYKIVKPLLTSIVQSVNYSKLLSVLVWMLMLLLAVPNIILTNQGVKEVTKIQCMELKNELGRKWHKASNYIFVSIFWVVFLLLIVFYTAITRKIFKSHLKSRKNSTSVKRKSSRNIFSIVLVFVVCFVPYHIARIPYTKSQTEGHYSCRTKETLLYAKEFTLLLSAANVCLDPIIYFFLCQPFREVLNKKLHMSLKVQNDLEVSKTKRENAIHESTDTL

[5] = test system: CCI of the sciatic nerve in adult male ICR mice; test: Chronic constriction injury; details: mouse, 10 μmol/kg, ip
[6] = Observed solubility in water, DMSO or aqueous DMSO; details: water
[7] = Plasma protein binding in three species
[8] = test system: ASP/OVA-sensitized mice; test: Ovalbumin/Aspergillus protease mouse model of allergic asthma, BALF cell counts; details: 10 mg/kg ip 30 min prior to allergen challenge, BALF 2 days post-challenge
[9] = ref Yu et al.[23]; cited from earlier work
[10] = ref Yu et al.[23]; cited from earlier work; remark: listed apart in the source
[11] = human, rat, and mouse plasma, ref Yu et al.[23]; cited from earlier work
[12] = human (h) microsomes; ref Yu et al.[23]; cited from earlier work
[13] = biological target: CYP2C9 (Homo sapiens, UniProt P11712); details: read-out: CYP2C9 (IC50); ref Yu et al.[23]; cited from earlier work
Chain of CYP2C9 (P11712 whole entry): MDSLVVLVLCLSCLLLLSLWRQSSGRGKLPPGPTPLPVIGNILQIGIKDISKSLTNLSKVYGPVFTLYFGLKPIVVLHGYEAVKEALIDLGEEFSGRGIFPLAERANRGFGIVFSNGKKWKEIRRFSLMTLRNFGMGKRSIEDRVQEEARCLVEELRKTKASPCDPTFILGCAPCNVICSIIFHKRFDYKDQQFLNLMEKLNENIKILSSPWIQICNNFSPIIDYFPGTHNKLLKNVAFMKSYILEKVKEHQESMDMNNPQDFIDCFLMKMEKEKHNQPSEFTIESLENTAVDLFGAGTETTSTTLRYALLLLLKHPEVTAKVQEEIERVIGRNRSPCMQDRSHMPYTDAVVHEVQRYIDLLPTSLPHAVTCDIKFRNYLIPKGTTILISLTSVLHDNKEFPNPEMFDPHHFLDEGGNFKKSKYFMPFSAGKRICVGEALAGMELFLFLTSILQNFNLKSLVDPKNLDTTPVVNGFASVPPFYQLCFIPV

[14] = biological target: T3, CYP3A4 (Homo sapiens, UniProt P08684); details: read-out: CYP3A4 (IC50); ref Yu et al.[23]; cited from earlier work
T3 sequence (P08684 whole entry): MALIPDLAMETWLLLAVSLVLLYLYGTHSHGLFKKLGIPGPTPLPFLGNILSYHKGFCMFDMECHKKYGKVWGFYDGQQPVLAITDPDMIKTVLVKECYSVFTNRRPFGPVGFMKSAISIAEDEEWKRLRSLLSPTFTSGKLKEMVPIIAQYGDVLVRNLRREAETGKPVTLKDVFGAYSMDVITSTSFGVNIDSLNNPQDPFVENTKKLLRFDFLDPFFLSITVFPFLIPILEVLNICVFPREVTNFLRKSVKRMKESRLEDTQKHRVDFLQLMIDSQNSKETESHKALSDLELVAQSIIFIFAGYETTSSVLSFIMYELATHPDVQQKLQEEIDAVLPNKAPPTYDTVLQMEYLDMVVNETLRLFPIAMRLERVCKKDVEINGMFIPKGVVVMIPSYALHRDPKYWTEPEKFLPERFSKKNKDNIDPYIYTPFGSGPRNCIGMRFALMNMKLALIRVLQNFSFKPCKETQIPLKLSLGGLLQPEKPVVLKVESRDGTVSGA

[15] = biological target: T3, CYP3A4; test: CYP3A4 inhibition
[16] = biological target: T4, CYP1A2 (Homo sapiens, UniProt P05177); test: CYP1A2 inhibition
T4 sequence (P05177 1-516): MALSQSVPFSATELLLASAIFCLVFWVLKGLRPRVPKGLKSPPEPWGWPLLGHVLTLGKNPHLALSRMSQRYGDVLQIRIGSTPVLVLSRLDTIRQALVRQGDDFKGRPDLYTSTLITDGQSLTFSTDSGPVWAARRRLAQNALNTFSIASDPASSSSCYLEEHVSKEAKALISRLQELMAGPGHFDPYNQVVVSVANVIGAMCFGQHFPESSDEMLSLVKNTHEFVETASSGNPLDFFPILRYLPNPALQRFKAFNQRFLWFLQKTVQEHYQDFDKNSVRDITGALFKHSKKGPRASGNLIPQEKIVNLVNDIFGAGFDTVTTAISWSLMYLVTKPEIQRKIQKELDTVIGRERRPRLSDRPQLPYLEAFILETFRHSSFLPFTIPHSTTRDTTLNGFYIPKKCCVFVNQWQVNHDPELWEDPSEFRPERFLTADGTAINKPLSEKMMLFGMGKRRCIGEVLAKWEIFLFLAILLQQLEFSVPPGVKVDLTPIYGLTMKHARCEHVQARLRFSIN

[17] = Pharmacokinetics in the rat, ip and iv

Structure (SMILES): NCCOCCOCCOCCOCCOCCOCCC(=O)N1CCC(c2ccc(-c3cc(C(=O)O)cc4cc(-c5ccc(C(F)(F)F)cc5)ccc34)cc2)CC1 [Compound 12, 4-(4-(1-(1-Amino-3,6,9,12,15,18-hexaoxahenicosan-21-oyl)piperidin-4-yl)phenyl)-7-(4-(trifluoromethyl)phenyl)-2-naphthoic Acid]
- IC50 [1]: 963 ± 417 nM
- lipophilicity (Δk), relative to 1 [2]: 0.71 ± 0.03
- solubility ([3]; pH 4): 8.02 ± 1.01 µg/mL (≈ 9.89 µM)
- solubility ([3]; pH 7.4): 7.16 ± 1.16 µg/mL (≈ 8.83 µM)
- fold greater aqueous solubility than 1 ([3]; pH 7.4, relative to 1): ~20 fold
- fold greater affinity at the mouse homologue than at the hP2Y14R [4]: 2 fold
- effect on the hind paw response contralateral to the injury [5]: No effect
- time of peak protection post-injection [5]: 1 to 2 h
- reversal of CCI-induced mechano-allodynia ([5]; 7 days post-CCI, ipsilateral hind paw): reduced chronic pain; also recorded: fully efficacious
- solubility [6]: ≥ 150 mM
- plasma protein binding [7]: high
- effect on eosinophilic airway inflammation [8]: inactive

Structure (SMILES): NC(=O)c1ccc(-c2cc(C(=O)O)cc(-n3cc(-c4ccc(C(F)(F)F)cc4)nn3)c2)cc1 [Compound 22]
- simulated intestinal fluid (% remaining at 120 min) [9]: 100%
- simulated gastric fluid (% remaining at 120 min) [10]: 100%
- plasma stability (three species) (% remaining at 120 min) [11]: 94–100%
- microsomal stability (t1/2, min) [12]: 145 min
- IC50 [13]: > 30 µM
- IC50 [14]: > 30 µM

Structure (SMILES): O=C(O)c1cc(-c2ccc(C34CCN(CC3)CC4)cc2)cc(-n2cc(-c3ccc(C(F)(F)F)cc3)nn2)c1 [Compound 18, 4′-(Quinuclidin-4-yl)-5-(4-(4-(trifluoromethyl)phenyl)-1H-1,2,3-triazol-1-yl)-[1,1′-biphenyl]-3-carboxylic Acid]
- IC50 [15]: 9.94 µM
- solubility ([3]; pH 4, aqueous solubility (pH 4.0, μg/mL), Table 5, pH 4.0, mean ± SD, pION method): 14.4 ± 0.3 µg/mL (≈ 27.8 µM)
- solubility ([3]; pH 7.4, aqueous solubility (pH 7.4, μg/mL), Table 5, pH 7.4, mean ± SD, pION method): < 0.1 µg/mL
- IC50 [16]: 14.1 µM
- time at which maximal plasma concentration was reached [17]: 3 to 4 h
- plasma concentration at the 12 h time point ([17]; highest dose (10 mg/kg), 12 h): 200 to 400 ng/kg
- plasma protein binding [7]: high
